From paper PMC10933344, “A lncRNA Dleu2-encoded peptide relieves autoimmunity by facilitating Smad3-mediated Treg induction” (EMBO Reports, 2024)

Key:
[1] = test system: Foxp3 CNS1-luciferase reporter / Smad3; test: Foxp3 CNS1-luciferase reporter assay in NIH/3T3 cells; type: cell-based, mouse; conditions: 20 μM
Description: Figure 4 Dleu2-17aa modulates TGF-β/Smad signaling to promote Foxp3 transcription. (A) qPCR analysis of TGF-β/Smad signaling downstream genes in CD4^+ T cells treated with Dleu2-17aa or scrPEP for 24 h and challenged with TGF-β to activate the signaling pathway (n = 3). (B) NIH/3T3 cells were transfected with a Foxp3 CNS1-luciferase reporter plasmid and a Smad3 expression vector. Subsequently, the cells were treated with either Dleu2-17aa or scrPEP. Luciferase activity fold induction was quantified (n = 3). (C) Foxp3 CNS1 region enrichment by Smad3 treated with or without Dleu2-17aa for 24 h in CD4^+ T cells was assessed by ChIP-qPCR (n = 3). (D) EMSA was performed in NIH/3T3 cell nuclear lysates using a 10 μM biotin-labeled Foxp3 probe and treated with Dleu2-17aa or scrPEP (3, 10, 30 μM). There were band shifts to a higher molecular weight and an increase in band intensity by Dleu2-17aa treatment. Data information: n indicates biological replicate. Error bars are mean ± SEM; **P < 0.01, and ***P < 0.001. Statistical analysis was by two-tailed Student’s t-test for (A–C). Source data are available online for this figure.
NIH/3T3 cells were seeded at 5 × 10^5 cells/well in 24-well plates and transfected with 0.2 μg/well of pGL3 Foxp3 CNS1-luciferase reporter and the internal control vector pRL-TK (Promega) at a ratio of 10:1 (reporter construct: control vector) using LipofectamineTM 2000 according to the manufacturer’s protocol; For specific groups, co-transfect with pcDNA3.1-Smad3, an empty vector served as the control. After 7 h, remove the transfection medium and replace it with fresh medium containing either 20 μM Dleu2-17aa or PBS. 24 h post-transfection, luciferase activity was measured using the Dual-Luciferase® Reporter Assay System (Promega) according to the manufacturer’s protocol.

naive CD4+ T cells = test: In vitro iTreg differentiation (Foxp3+ of CD4+ cells); type: cell-based, mouse; conditions: 20 μM, 72 h
Description: C57BL/6 mice were sacrificed, and their spleens and peripheral lymph nodes were removed and gently dissociated into single-cell suspensions. Naive T cells were isolated using the Mouse CD4 Naive T Cell Isolation Kit (BioLegend, Stem Cell, or Thermo Fisher Scientific). Flow cytometry verified that the purity (CD4^+CD25^−CD62L^hi) of the enriched subpopulation was typically higher than 95%. All T cells were cultured using RPMI-1640 medium (Gibco) supplemented with 10% heat-inactivated fetal bovine serum (Gibco), 2 mM L-glutamine (Gibco), 10,000 units/mL of penicillin, 10,000 µg/mL of streptomycin, and 25 µg/mL of Gibco Amphotericin B (Thermo Fisher Scientific), 10 mM HEPES (Gibco), 1 mM Sodium pyruvate, MEM Non-Essential Amino Acids (Life Technologies) and 55 μM β-mercaptoethanol (Gibco). 0.1 million naive CD4^+ T cells were activated with plate-coated anti-CD3 (2.5 μg/ml; BD Biosciences) and soluble anti-CD28 (2 μg/ml; BD Biosciences) antibodies. The Th1 cell differentiation condition included recombinant murine (rm)IL-12 (10 ng/ml, PeproTech) and anti-IL-4 (10 μg/ml, BioLegend). The Th17 cell differentiation condition included rmIL-6 (10 ng/ml, PeproTech), rmTGF-β1 (5 ng/ml, PeproTech), rmIL-23 (10 ng/ml, PeproTech), anti-IL-4 (5 μg/ml, BioLegend) and anti-IFN-γ (10 μg/ml, eBioscience). The inducible T regulatory cell (iTreg) differentiation condition included rmTGF-β (5 ng/ml, PeproTech). 0.1 million naive CD8^+ T cells were activated with plate-coated anti-CD3 (10 μg/ml; BD Biosciences) and plate-coated anti-CD28 (10 μg/ml; BD Biosciences) antibodies. The Tc17 cell differentiation condition included rmIL-6 (10 ng/ml, PeproTech), rmTGF-β1 (2 ng/ml, PeproTech), rmIL-23 (25 ng/ml, PeproTech), rmIL1-β (5 ng/ml, PeproTech), and anti-IFN-γ (10 μg/ml, eBioscience). The Tc1 cell differentiation condition included rmIL-2 (5 ng/ml, PeproTech) and rm IL-12 (1 ng/ml, PeproTech). Different concentrations of Dleu2-17aa and scrPEP (Genscript) were added to the T cell culture from the beginning unless specified. Cells were cultured in U-bottom 96-well plates for 72 h and detected by flow cytometry.
For in vitro mouse T cell differentiation, after 72 h of induction, cells were activated for 4–6 h at 37 °C with the Cell Stimulation Cocktail (Thermo Fisher Scientific) if intracellular cytokine staining is needed, surface markers were stained in FACS buffer (PBS containing 2% FBS) for 30 min at 4 °C protected from light. Cells were then fixed and permeabilized with the Foxp3 Staining Buffer Set (eBioscience) or BD Cytofix/Cytoperm (BD Biosciences) and were stained with fluorescent antibodies. After washing, stained cells were assayed with an LSRFortessa (BD) flow cytometer, and data were analyzed with FlowJo software. Single-cell suspensions from EAE mouse spleen or CNS (day 16 post-immunization) were derived through mechanical separation and passage through a 70-μm filter (Fisherbrand) and analyzed using similar steps. For flow cytometry, antibodies against CD4 (clone GK1.5, 1:200), CD62L (clone MEL-14, 1:200), CD44 (clone IM7, 1:200), CD25 (clone PC61.5, 1:200), IL-17A (clone eBio17B7, 1:200), IFN-γ (clone XMG1.2, 1:200), FoxP3 (clone FJK-16s, 1:200), CD184 (clone 2B11/CXCR4, 1:100), CD152 (clone BNI3 1:100) and CD357 (clone DTA-1 1:100) were from eBioscience, CD3 (clone 145-2C11, 1:200) was from Biolegend and TGFBI (1:100) were from proteintech. For Dleu2-17aa expression detection, C57BL/6 mice were sacrificed, and their spleens were removed and gently dissociated into single-cell suspensions. An Fc blocker was used to reduce potential nonspecific antibody staining caused by IgG. Surface staining was performed using monoclonal antibodies against CD45 (clone 30-F11), CD3 (clone 145-2C11), CD19 (clone SJ25C1), CD11c (clone N418), MHCII (clone M5/114.15.2), F4/80 (clone BM8) all at a dilution of 1:200 (from Biolengend) followed by fixation and permeabilization of the nuclear membrane BD Cytofix/Cytoperm (BD Biosciences). […]

Sequence: ARGPARRMRGGRRRRLR [scrPEP, scrambled control peptide of Dleu2-17aa]
- Relative luciferase activity ([1]; with Smad3 vector, replicate 1): 2.57
- Relative luciferase activity ([1]; with Smad3 vector, replicate 2): 2.653
- Relative luciferase activity ([1]; with Smad3 vector, replicate 3): 2.615
- Relative luciferase activity ([1]; without Smad3 vector, replicate 1): 0.9636
- Relative luciferase activity ([1]; without Smad3 vector, replicate 2): 0.91
- Relative luciferase activity ([1]; without Smad3 vector, replicate 3): 1.069
- Foxp3+/ CD4+ Cells (%) (naive CD4+ T cells; replicate 1): 32.8%
- Foxp3+/ CD4+ Cells (%) (naive CD4+ T cells; replicate 2): 22.9%
- Foxp3+/ CD4+ Cells (%) (naive CD4+ T cells; replicate 3): 16.77%
- Foxp3+/ CD4+ Cells (%) (naive CD4+ T cells; replicate 4): 32.13%
- Foxp3+/ CD4+ Cells (%) (naive CD4+ T cells; replicate 5): 22.9%
- Foxp3+/ CD4+ Cells (%) (naive CD4+ T cells; replicate 6): 10.3%
- Foxp3+/ CD4+ Cells (%) (naive CD4+ T cells; replicate 7): 30.6%
